In article PMC4109680, “Identification and Preclinical Pharmacology of the γ-Secretase Modulator BMS-869780” (International Journal of Alzheimer's Disease, 2014):

System: brain Aβ1-42 and Aβ1-40
Assay: Rat 4-day repeat dose, residual brain Aβ by ELISA and immunodepletion
Assay type: in vivo
Experimental: Figure 7 BMS-869780 dose response and evaluation of residual Aβ levels in rat brain. (a) Groups of rats received intraperitoneal (IP) injections of vehicle or BMS-869780 at doses of 100, 30, 10, 3, 1, and 0.3 mg/kg. Additional rats were dosed with GSI BMS-698861 at 30 mg/kg as a positive control for Aβ-lowering. Group sizes were seven rats for each dose of BMS-869780 and 14 rats for vehicle and GSI dose groups. Brain and plasma were harvested 5 hours after dosing. Brain Aβ1-42 (green), brain Aβ1-40 (blue), brain Aβ1-x (black), and plasma Aβ1-40 (red) were determined. Values are expressed as % relative to vehicle group mean. Whiskers represent standard error. ⊗Aβ1-x was not determined in the groups dosed at 3, 1, and 0.3 mg/kg. (b) Brain Aβ1-40 was plotted against brain Aβ1-42 for each rat dosed with BMS-869780 (black ▼) and for each rat dosed with vehicle (grey ●). Values are expressed as % relative to vehicle group mean. Whiskers represent standard error. […] The respective 95% confidence intervals were 618–1053 nM, 704–1264 nM, and 44–158 nM. (d) Rats were dosed once daily with BMS-869780 for 4 days at 10 and 100 mg/kg or vehicle, plasma, and brain samples were taken 5 hours after the last dose, and immunodepletion of brain extracts was carried out prior to Aβ1-42 ELISA assays. […] After immunodepletion, Aβ1-42 was assayed by ELISA. (e) Same as described in (d), except that Aβ1-40 ELISA was carried out following the immunodepletion.
For immunodepletion of rat brain Aβ, solid phase extracts were pooled within treatment groups. The pools were divided into equal aliquots and incubated with or without monoclonals 565, TSD, 4G8, or 6E10 (10 μg) at 4°C overnight. Protein G beads (50 μL; EZview, Sigma) were added, and incubation was continued with agitation for 1 hour. The beads were removed by centrifugation, and Aβ1-40 and Aβ1-42 in the unbound fraction were quantified by ELISA, as described above.
All experimental procedures with animals followed National Institutes of Health guidelines and were authorized by and in compliance with policies of the Bristol-Myers Squibb Animal Use and Care Committee. Mice and rats were housed with a 6:00 AM to 6:00 PM light/dark cycle and allowed free access to food and water. For 3xTg mice, BMS-869780 was dosed in three-month-old females by oral gavage at 6 mL/kg in vehicle consisting of 84% polyethylene glycol average molecular weight of 400 (PEG-400), 15% EtOH, and 1% Tween-80 (w/w/w). The compound was dissolved in EtOH and then diluted with PEG-400 and Tween, after which the vial was sealed, vortexed, and sonicated at 56°C for 1 hour. Animals were euthanized by asphyxiation in CO2. Blood was collected by cardiac puncture and placed into ethylene-diaminetetraacetic acid microtainer tubes for the preparation of plasma. The cerebellum was collected for the determination of compound concentration, and the remaining brain was separated into left and right halves before freezing in liquid nitrogen. For the rat time course study, 8- to 12-week-old female Sprague-Dawley rats were obtained from Charles River Laboratories (Wilmington, MA), BMS-869780 was dosed orally at 4 mL/kg, and brain and plasma samples were collected as described for the 3xTg mice. For the four day repeat dose rat study, BMS-869780 was given by oral gavage in vehicle consisting of PEG-400, PEG-200, D-α-tocopheryl polyethylene glycol succinate, Solutol HS 15, in the ratio 80 : 10 : 5 : 5 (w/w/w/w). Methods for the pharmacokinetics studies in rat, dog, and monkey are described below.

[1] = averaged across depleted samples in both dose groups
[2] = four daily doses, 10 and 100 mg/kg, 5 hours after last dose

COc1cc(Nc2nc3n(n2)CCCC[C@H]3c2ccc(F)cc2)ccc1-n1cnc(Cl)c1 [BMS-869780]
residual signal for Aβ1-40 after immunodepletion [1]: 4%
residual signal for Aβ1-42 after immunodepletion [1]: 16%
residual pool of Aβ1-40 (four daily doses): ~7%
residual pool of Aβ1-42 (four daily doses): ca. 15%
residual ELISA signal for Aβ1-40 [2]: 19%
residual ELISA signal for Aβ1-42 [2]: 31%
